{"source": "patent EP4455142A1", "about": "“NOVEL INHIBITOR OF QPCTL AND/OR QC” (Scenic Immunology B.V., priority 2023, dated 2024)", "key": {"[1]": {"test_system": "Raji human Burkitt's lymphoma cells", "experiment": "In vivo Raji xenograft mouse model", "design": "species or system NSG mice", "conditions": "(1) 100 mg/kg orally once daily in combination with Rituximab 10 mg/kg intravenously Q3D, versus Rituximab alone", "method": "Anti tumor effects were determined in a model for Burkitt's lymphoma. NSG mice were intravenuously injected with 1 × 10^6 Raji human Burkitt's lymphoma cells. Four days after tumor cell injection, animals were treated with compound (1) as a single agent and in combination with Rituximab (anti-CD20 antibody). Compound (1) was administered at 100 mg/kg orally, once daily. Rituximab was dosed at 10 mg/kg intravenously every third day (Q3D). Tumor progression was evaluated by monitoring animal health and body weight measurement. […] Animals treated with compound in combination with Rituximab, on average, lived 5.5 days longer than animals treated with Rituximab alone."}, "[2]": {"experiment": "Low dose pharmacokinetics", "type": "in vivo", "conditions": "mouse, plasma, iv, 1 mg/kg; C57BI/6 mice, intravenously, 1 mg per kg bodyweight", "method": "In order to determine the stability of test compounds in plasma, low-dose pharmacokinetic experiments were carried out in C57BI/6 mice. Test compounds were dissolved at 0.1 mg/mL in an appropriate vehicle and dosed intravenously at 1 mg per kg bodyweight in three animals per compound. At various (between 5 and 9) timepoints after injection, up to 24 hours, blood samples were drawn, plasma isolated and test compound concentrations were determined using LC-MS/MS. t½ values were subsequently calculated using Phoenix WinNonlin 6.3 software and averaged over the three mice per test compound."}, "Pan02 cells": {"test_system": "Pan02 cells", "experiment": "In vivo Pan02 syngeneic mouse model", "design": "species or system C57BL/6 female mice", "method": "Anti tumor effects were evaluated in the Pan02, pancreatic adenocarcinoma syngeneic mouse tumor model. For this study 3 × 10^6 Pan02 cells were injected in the right front flank of C57BL/6 female mice. Tumor size was measured and when tumors reached an average size of 80-120 mm^3, treatment was started. Treatment consisted of compound alone, or in combination with the anti PD-L1 antibody (B7-H1). Compound (1) was administered orally at 100 mg/kg once daily and anti-PD-L1 antibody was administered intraperitoneally at 10 mg/kg twice weekly. Tumor progression was monitored by tumor volume measurement using a caliper."}}}
{"molecule": "O=C1OC[C@H](c2ccc(-c3cnn(C(F)(F)F)c3)cc2F)N1c1ccc2[nH]cnc2c1", "note": "[Compound (1)]", "values": [{"measurement": "lived longer than animals treated with Rituximab alone (on average)", "setting": "[1]", "result": 5.5, "unit": "days"}, {"measurement": "half-life", "setting": "[2]", "result": "3.99 to 4.58", "unit": "h"}, {"measurement": "anti tumor effect (tumor volume), combined with anti-PD-L1 antibody", "setting": "Pan02 cells; (1) orally 100 mg/kg once daily plus anti-PD-L1 antibody intraperitoneally 10 mg/kg twice weekly", "result": "tumor regression"}, {"measurement": "anti tumor effect (tumor volume), compound alone", "setting": "Pan02 cells; (1) orally 100 mg/kg once daily, by itself", "result": "tumor growth inhibition"}]}
